Columns and labels:
Jurkat T cells = test: FITC-labeled hGal-7 binding on Jurkat T cells, flow cytometry; type: cell-based; conditions: FITC-labeled hGal-7 0.1 μM pre-incubated with peptide, FIG. 4
Procedure: FITC conjugation and hGal-7 binding assay. To assess hGal-7 binding onto Jurkat T cells, 5 μL of a 1.25 mg/mL fluorescein isothiocyanate (FITC)/DMSO solution was added to 300 μL of 1.7 μg/μL recombinant hGal-7 in a 0.1 M NaHCO3 pH 9.2 solution and incubated for 1 h at room temperature on a roller. FITC-labeled hGal-7 was then purified using a PD-10 Sepharose® column (GE healthcare) and eluted with PBS containing 0.01% [v/v] sodium azide. FITC-labeled hGal-7 (0.1 μM) was then pre-incubated with hGal-7(129-135) (or related peptides) in 20 mM potassium phosphate buffer pH 7.1 for 1 h at 4° C. Jurkat cells (5×10^5 cells per sample) were harvested in PBS-0.01% [v/v] sodium azide and incubated for 30 min on ice with the FITC-labeled hGal-7 with and without peptides. Cells were then washed with PBS-0.01% [v/v] sodium azide and resuspended in 400 μL of the same buffer and analyzed on a FACSCalibur® (BD Biosciences®).
It was thus tested whether hGal-7(129-135) could modulate the binding of hGal-7 on Jurkat T cells, a cell model that is commonly used to test the pro-apoptotic activity of galectins. For this purpose, recombinant hGal-7 was labeled with fluorescein isothiocyante (FITC) and its binding on the surface of Jurkat T cells was measured by flow cytometry in absence or presence of increasing concentrations of hGal-7(129-135). […]

hGal-7/Bcl-2 heterodimer = molecular target: T1, hGal-7/Bcl-2 heterodimer (Homo sapiens, UniProt P47929); test: hGal-7/Bcl-2 heterodimer disruption, low-SDS Western blotting with anti-Gal-7 antibody; type: biochemical; conditions: hGal-7 and Bcl-2 each 0.5 μM, especially at the highest dose of 500 μM, FIG. 12C
T1 construct: host or cells: E. coli BL21 (DE3) (hGal-7)
Procedure: FIGS. 12A to 12C show the dose-dependent disruption of the hGal-7/Bcl-2 heterodimer in the presence of the hGal-7(129-135) peptide. FIGS. 12A and 12B: detection of hGal-7/Bcl-2 heterodimers in the presence of the indicated amounts of recombinant Bcl-2 using an anti-gal-7 antibody (FIG. 12A) or an anti-Bcl-2 antibody (FIG. 12B). FIG. 12C: the recombinant hGal-7 and Bcl-2 (each at 0.5 μM) were incubated with increasing concentrations of hGal-7(129-135) in 20 mM potassium phosphate buffer (pH 7.1). The effect of hGal-7(129-135) on the homodimerization and heterodimerization (with Bcl-2) of hGal-7 was assessed by Western blotting in low-SDS conditions with an anti-Gal-7 antibody.
Production of recombinant hGal-7 and hGal-1. Human Gal-7 cDNA was cloned into pET-22b(+) using Ndel and HindIII restriction enzymes. Human pET-Gal-1 vector was generously donated by Dr. S. Sato (McGill University, QC, Canada). The proteins were produced in E. coli BL21 (DE3) cells at 37° C. Isopropyl p-D-1-thiogalactopyranoside (IPTG) (1 mM) was added to the bacterial culture at OD600nm=0.6-0.7 and then incubated for 4 h at 37° C. to allow protein production. […] Purified fractions were analyzed by SDS-PAGE. […]

T1 sequence (P47929 2-136 limits assumed, one chain of several): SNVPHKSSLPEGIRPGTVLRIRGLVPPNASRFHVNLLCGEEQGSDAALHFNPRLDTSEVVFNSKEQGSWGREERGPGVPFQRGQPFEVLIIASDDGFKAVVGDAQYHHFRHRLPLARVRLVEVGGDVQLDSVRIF

Substance: H-Leu-Asp-Ser-Val-Arg-Ile-Phe-NH2 (H-LDSVRIF-NH2; listed as Homo sapiens) [hGal-7(129-135), peptide corresponding to residues 129-135 of hGal-7]
- fluorescent intensity of Jurkat T cells due to FITC-labeled hGal-7 binding (Jurkat T cells): increased the fluorescent intensity of Jurkat T cells in a concentration-dependent manner
- amount of hGal-7/Bcl-2 heterodimers (hGal-7/Bcl-2 heterodimer): decreased
